From ChEMBL document CHEMBL4152365, “Discovery of DS-6930, a potent selective PPARγ modulator. Part I: Lead identification” (Bioorg Med Chem, 2018)
pEC50: −log10 of the molar value. ≈ marks a conversion by molar mass, not a printed value. Calls of active or inactive are those of the source. The calls are words filed in the database; no cut-off is given here.

Key:
[1] = biological target: T1, Peroxisome proliferator-activated receptor gamma (Homo sapiens, UniProt P37231); experiment: Agonist activity at recombinant human GAL4-DBD fused PPARgamma LBD expressed in COS7 cells after 24 hrs by luciferase reporter gene assay; format: cell-based
T1 sequence (P37231 whole entry): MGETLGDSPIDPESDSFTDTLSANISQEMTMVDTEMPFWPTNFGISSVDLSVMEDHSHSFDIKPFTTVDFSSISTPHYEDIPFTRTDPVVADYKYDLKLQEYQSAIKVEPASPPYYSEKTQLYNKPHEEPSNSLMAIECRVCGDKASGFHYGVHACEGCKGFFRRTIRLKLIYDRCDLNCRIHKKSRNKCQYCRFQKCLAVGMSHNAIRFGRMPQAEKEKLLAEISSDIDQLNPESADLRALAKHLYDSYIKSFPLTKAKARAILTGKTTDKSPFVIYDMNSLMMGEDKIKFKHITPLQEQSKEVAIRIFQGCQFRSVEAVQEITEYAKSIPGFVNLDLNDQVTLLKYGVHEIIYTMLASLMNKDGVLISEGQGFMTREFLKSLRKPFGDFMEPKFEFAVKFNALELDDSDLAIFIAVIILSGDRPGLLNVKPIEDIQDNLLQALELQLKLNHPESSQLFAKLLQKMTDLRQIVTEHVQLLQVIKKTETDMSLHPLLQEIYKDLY

[2] = biological target: T2, Peroxisome proliferator-activated receptor gamma (Homo sapiens) (UniProt P37231); experiment: Agonist activity at recombinant human GAL4-DBD fused PPARgamma LBD expressed in COS7 cells at 10 uM after 24 hrs by luciferase reporter gene assay relative to rosiglitazone; format: cell-based
T2 sequence (whole entry): T1 sequence (P37231 whole entry)

Mus musculus [3] = experiment: Glucose-lowering effect in hyperglycemic KK/Ta mouse assessed as reduction in plasma glucose level at 30 mg/kg/day, po administered through diet for 3 days relative to control; format: functional; parameters: scale not given: the % may be the effect or the level left
[4] = biological target: T3, Peroxisome proliferator-activated receptor alpha (Homo sapiens) (UniProt Q07869); experiment: Agonist activity at recombinant human GAL4-DBD fused PPARalpha LBD expressed in COS7 cells at 10 uM after 24 hrs by luciferase reporter gene assay relative to 2-(4-tert-Butylphenoxy)-3-[4-[2-[(4-pyridin-2-ylbenzoyl)amino]ethoxy]; format: cell-based
T3 sequence (whole entry): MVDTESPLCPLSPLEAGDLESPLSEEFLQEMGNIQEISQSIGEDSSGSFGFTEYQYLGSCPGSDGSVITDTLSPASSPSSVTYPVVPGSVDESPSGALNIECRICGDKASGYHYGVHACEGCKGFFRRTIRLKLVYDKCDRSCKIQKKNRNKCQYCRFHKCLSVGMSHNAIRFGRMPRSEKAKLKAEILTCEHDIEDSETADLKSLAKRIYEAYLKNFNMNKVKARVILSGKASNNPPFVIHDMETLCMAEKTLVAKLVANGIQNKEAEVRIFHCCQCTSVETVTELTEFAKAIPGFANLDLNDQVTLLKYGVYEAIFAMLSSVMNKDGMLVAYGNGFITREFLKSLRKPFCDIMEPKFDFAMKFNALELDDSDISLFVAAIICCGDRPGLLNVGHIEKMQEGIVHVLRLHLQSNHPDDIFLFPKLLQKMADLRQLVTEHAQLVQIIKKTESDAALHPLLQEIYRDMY

[5] = Metabolic stability in human liver microsomes after 0.5 hrs; format: ADME, microsome; details: read-out: Stability
Mus musculus [6] = experiment: Toxicity in hyperglycemic KK/Ta mouse assessed as body weight gain at 30 mg/kg/day, po administered through diet for 3 days relative to control; format: organism-based; details: in vivo, 72 h
[7] = 1-octanol/PBS distribution co-efficient, log D of the compound at […] at pH 7.4 after 30 mins by HPLC-MS/MS analysis; format: physicochemical
[8] = Plasma concentration in hyperglycemic KK/Ta mouse at 30 mg/kg/day, po administered through diet for 3 days measured on day 3 post last dose; format: ADME, organism-based
[9] = biological target: T4, Peroxisome proliferator-activated receptor alpha (Homo sapiens, UniProt Q07869); experiment: Agonist activity at recombinant human GAL4-DBD fused PPARalpha LBD expressed in COS7 cells after 24 hrs by luciferase reporter gene assay; format: cell-based
T4 sequence (Q07869 whole entry): T3 sequence (whole entry)

[10] = Aqueous thermodynamic solubility of the compound in pH 6.8 solution up to 4 hrs by HPLC-UV analysis; format: physicochemical; details: read-out: Therm_solubility
[11] = biological target: T5, Peroxisome proliferator-activated receptor delta (Homo sapiens) (UniProt Q03181); experiment: Agonist activity at PPARdelta (unknown origin) at 10 uM
T5 sequence (whole entry): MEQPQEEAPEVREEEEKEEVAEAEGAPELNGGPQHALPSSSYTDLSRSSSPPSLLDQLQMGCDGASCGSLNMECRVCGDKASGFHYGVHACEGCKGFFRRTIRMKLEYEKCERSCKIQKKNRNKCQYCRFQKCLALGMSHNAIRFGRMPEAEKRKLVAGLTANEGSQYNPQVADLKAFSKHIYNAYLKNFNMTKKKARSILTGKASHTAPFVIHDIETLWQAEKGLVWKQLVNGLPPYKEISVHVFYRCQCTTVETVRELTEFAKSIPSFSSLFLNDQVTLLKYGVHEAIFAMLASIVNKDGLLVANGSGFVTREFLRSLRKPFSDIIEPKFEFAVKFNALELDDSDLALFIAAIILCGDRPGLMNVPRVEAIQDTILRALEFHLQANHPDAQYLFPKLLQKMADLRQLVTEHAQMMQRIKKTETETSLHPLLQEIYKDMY

| SMILES | pEC50 [1] | Emax [2] [%] | Activity (Mus musculus [3]) [%] | Emax [4] [%] | remaining at 0.5 h [5] [%] | Activity (Mus musculus [6]) [%] | logD at 0.5 h [7] | concentration at 72 h [8] [ng/mL] | pEC50 [9] | solubility thermodynamic at 4 h [10] [µg/mL] | Activity [11] |
| --- | --- | --- | --- | --- | --- | --- | --- | --- | --- | --- | --- |
| Cc1cc(Oc2ccc3nc(COc4ccc(C#N)cc4)n(C)c3c2)cc(C)c1N | 6.40 | 79 |  |  |  |  |  |  |  |  |  |
| Cc1cc(Oc2ccc3nc(COc4cccc(C(=O)O)c4)n(C)c3c2)ccc1F.Cl | 7.21 | 61 | 49.4 | 28 | 69 | 3.5 | 2.3 | 190 | < 5.00 |  |  |
| Cc1cc(Oc2ccc3nc(COc4ccccc4)n(C)c3c2)cc(C)c1N | 6.50 | 73 |  |  |  |  |  |  |  |  |  |
| Cn1c(COc2cccc(C(=O)O)c2)nc2ccc(Oc3cc(F)cc(Cl)c3)cc21 | 7.64 | 78 | 57.5 | 43 | 78 | 3.1 | 2.8 | 370 | < 5.00 | 0.9 (≈ 2.11 µM) |  |
| Cl.Cn1c(COc2cccc(C(=O)O)c2)nc2ccc(Oc3ccccc3)cc21 |  | 90 |  |  | 100 |  | 1.8 |  |  | 2 | inactive |
| CCc1ccc2ccc(F)cc2c1CNC(=O)c1c(OC)cc(O)c2c1OC1=CC(O)=C(C(C)=O)C(=O)[C@]12C | 7.92 | 64 |  |  |  |  |  |  |  |  |  |
| Cc1cc(F)cc(Oc2ccc3nc(COc4cccc(C(=O)O)c4)n(C)c3c2)c1 | 7.68 | 84 | 58.3 | 29 | 100 | 1.7 | 2.7 | 190 | < 5.00 | 0.5 (≈ 1.23 µM) |  |
| CC(=O)c1ccccc1OCc1nc2ccc(Oc3cc(C)c(N)c(C)c3)cc2n1C | 6.45 | 96 |  |  |  |  |  |  |  |  |  |
| Cc1cc(Oc2ccc3nc(COc4cccc(C(=O)O)c4)n(C)c3c2)cc(C)c1N.Cl.Cl |  | 73 |  |  | 88 |  | 1.4 |  |  | 11 |  |
| Cc1cc(Oc2ccc3nc(COc4ccc(CC5SC(=O)NC5=O)cc4)n(C)c3c2)cc(C)c1N (configuration not stated) [EFATUTAZONE] | 10.42 | 100 |  |  |  |  |  |  |  |  |  |
| Cc1ccc(F)cc1Oc1ccc2nc(COc3cccc(C(=O)O)c3)n(C)c2c1 | 7.41 | 84 | 26.4 | 17 | 64 | 5.1 | 2.5 |  | < 5.00 | 0.6 (≈ 1.48 µM) |  |
| CCOc1cccc(Oc2ccc3nc(COc4cccc(C(=O)O)c4)n(C)c3c2)c1 | 7.40 | 56 | 22 | 37 |  | 3.3 | 2.4 |  | < 5.00 |  | inactive |
| Cc1ccc(F)c(Oc2ccc3nc(COc4cccc(C(=O)O)c4)n(C)c3c2)c1 | 6.86 | 111 | 49.4 | 37 | 83 | 1.6 | 2.4 | 120 | < 5.00 | 11 (≈ 27.1 µM) |  |
| CC(=O)c1ccc(OCc2nc3ccc(Oc4cc(C)c(N)c(C)c4)cc3n2C)cc1 | 6.47 | 70 |  |  |  |  |  |  |  |  |  |
